In patent US20250084128A1, “ANTIVIRAL […]-STAPLED SARS-CoV-2 PEPTIDE-C[…] USES THEREOF” (priority 2021, published 2025):

System: pseudotyped SARS-CoV-2 virus
Type: cell-based

Row | Substance | differential antiviral activity
1 | DISGINASVVNIQK8IDRLNEXAKNLNESLIDLQELGK [SEQ ID NO: 11] | little to no activity
2 | DISGINASVVNIQKEIDRL8EVAKNLXESLIDLQELGK [SEQ ID NO: 16] | moderate activity
3 | DISGINASVVNIQKEIDR8NEVAKNXNESLIDLQELGK [SEQ ID NO: 15] | little to no activity
4 | DISGINASVVNIQKEI8RLNEVAXNLNESLIDLQELGK [SEQ ID NO: 13] | moderate activity
5 | DISGINASVVNIQKEID8LNEVAKXLNESLIDLQELGK [SEQ ID NO: 14] | little to no activity
